Assay results published in the NIST ThermoML archive (doi:10.1016/j.jct.2010.04.020).
± gives the expanded uncertainty stated by the source.

Experiments:
[1] = for mass density: 101.33 kPa, Liquid, Vibrating tube method; for Triple point temperature: Crystal
[2] = Molar enthalpy of transition or fusion; conditions: Crystal; DSC

CCCC[n+]1cccc2ccccc21.O=S(=O)([N-]S(=O)(=O)C(F)(F)F)C(F)(F)F [1-butylquinolinium bis((trifluoromethyl)sulfonyl)amide]
[1]
Conditions | Triple point temperature [K] | mass density [kg/m3]
333.15 K | – | 1416.26 ± 6.9
343.15 K | – | 1407.38 ± 6.8
353.15 K | – | 1398.52 ± 6.8
363.15 K | – | 1389.69 ± 6.7
DTA | 329.12 ± 0.5 | –
visual observation | 329.62 ± 1.1 | –

Conditions | Molar enthalpy of transition or fusion [kcal/mol]
[2] | 10.5 ± 0.287
